Like-named read-outs stand apart in the source and are kept apart here.
Key:
FAK = biological target: T1, FAK (Homo sapiens, UniProt Q05397); experiment: In vitro kinase activity (Kinase-Glo luminescence); assay type: biochemical; conditions: for inhibition at 1 µM: read-out: FAK inhibition (% at 1 μM); for FAK inhibition (% at 1 μM): Table 1
T1 construct: Human recombinant full-length kinases were incubated in kinase buffer
Method: Human recombinant full-length kinases were incubated in kinase buffer containing ATP and substrate (Poly Glu:Tyr) for 4 hours at room temperature with or without the presence of the compounds listed in Table 1 at various concentrations. Remaining ATP in solution was then quantified using the Kinase-Glo-Iuminescence™ kit (Promega).

MDA-231 cells = experiment: Inhibition of cell proliferation, MTT metabolic assay; assay type: cell-based; conditions: 96 hours continuous treatment, read-out: MDA231- IC50
Method: (§1) Exponentially growing DU145 or MDA-231 cells (1×10^3 cells) were seeded in 96-well plates. The final concentration of DMSO was less than 0.05%. After 96 hours, the cell survival was evaluated using 3-(4,5-dimethylthiazo-2-yl)-2,5-diphenyltetrazolium bromide (MTT) metabolic assay.

DU145 cells = experiment: as above; assay type: cell-based
Method: as §1, with “assay. The inhibitory activity (IC50) of the compounds on MDA-231 and DU145 cell proliferation was determined. The results are presented in Table 1 for a representative number of compounds.” for “assay.”

[1] = Homo sapiens, MDA-MB-231, MDA-231 cell proliferation
[2] = Homo sapiens, DU-145, 96 hours continuous treatment

T1 sequence (Q05397 whole entry): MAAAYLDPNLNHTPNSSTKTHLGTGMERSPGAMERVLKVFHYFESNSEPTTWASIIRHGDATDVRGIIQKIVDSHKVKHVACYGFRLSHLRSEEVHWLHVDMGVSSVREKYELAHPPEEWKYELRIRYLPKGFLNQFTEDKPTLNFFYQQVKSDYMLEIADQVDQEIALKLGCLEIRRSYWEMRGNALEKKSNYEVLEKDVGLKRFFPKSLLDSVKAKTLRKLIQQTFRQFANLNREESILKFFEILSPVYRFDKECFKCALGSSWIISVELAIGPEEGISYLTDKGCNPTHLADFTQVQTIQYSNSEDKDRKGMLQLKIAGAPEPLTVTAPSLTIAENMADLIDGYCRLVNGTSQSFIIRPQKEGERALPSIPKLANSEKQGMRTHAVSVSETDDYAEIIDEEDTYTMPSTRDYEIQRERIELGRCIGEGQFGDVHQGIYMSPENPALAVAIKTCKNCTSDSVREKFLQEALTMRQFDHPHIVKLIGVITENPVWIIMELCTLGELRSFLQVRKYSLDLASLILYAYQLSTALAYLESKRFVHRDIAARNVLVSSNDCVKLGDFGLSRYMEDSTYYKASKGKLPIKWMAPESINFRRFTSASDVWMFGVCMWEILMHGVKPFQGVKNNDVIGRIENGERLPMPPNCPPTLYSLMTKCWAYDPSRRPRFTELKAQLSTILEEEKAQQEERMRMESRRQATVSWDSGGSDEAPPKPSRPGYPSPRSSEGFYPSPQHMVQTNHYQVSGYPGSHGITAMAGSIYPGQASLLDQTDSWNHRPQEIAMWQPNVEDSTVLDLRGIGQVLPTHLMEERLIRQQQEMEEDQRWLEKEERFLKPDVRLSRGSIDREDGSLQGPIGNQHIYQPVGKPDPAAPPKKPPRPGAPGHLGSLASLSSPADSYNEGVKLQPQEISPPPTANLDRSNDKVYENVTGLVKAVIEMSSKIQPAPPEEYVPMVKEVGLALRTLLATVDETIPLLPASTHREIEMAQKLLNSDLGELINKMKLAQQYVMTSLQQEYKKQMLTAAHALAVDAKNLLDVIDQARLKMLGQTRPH

Row | Compound | inhibition at 1 µM (FAK) [%] | IC50 (MDA-231 cells; [1]) [µM] | IC50 (DU145 cells; 96 hours continuous treatment) [µM] | IC50 (MDA-231 cells; MDA-231 cell proliferation) [µM] | IC50 (DU145 cells; [2]) [µM] | FAK inhibition (% at 1 μM) (FAK) [%]
1 | O=C(N[C@@H]1OC(CO)[C@H](O)C(O)C1O)c1ccc(-n2[se]c3ccccc3c2=O)cc1 (some centres unmarked) [Compound 23] | 32 | 12.7 | – | – | – | –
2 | O=C(N[C@@H]1OC(CO)[C@@H](O)C(O)C1O)c1ccc(-n2[se]c3ccccc3c2=O)cc1 (some centres unmarked) [Compound 22] | 60 | 2.7 | – | – | – | –
3 | CC(=O)OCC1O[C@@H](OC(=O)c2ccc(-n3[se]c4ccccc4c3=O)cc2)C(OC(C)=O)C(OC(C)=O)[C@@H]1O[C@@H]1OC(COC(C)=O)[C@H](OC(C)=O)C(OC(C)=O)C1OC(C)=O (some centres unmarked) [Compound 30] | 94 | 2.2 | – | – | – | –
4 | O=c1c2ccccc2[se]n1[C@@H]1O[C@H](CO)[C@H](O)[C@H](O)[C@H]1O [Compound 3, 2-(1-deoxy-β-D-galactopyranosyl)-1,2-benzisoselenazol-3(2H)-one] | – | – | 24.3 | 21 | – | –
5 | CC(=O)OC[C@H]1O[C@@H](n2[se]c3ccccc3c2=O)[C@H](OC(C)=O)[C@@H](OC(C)=O)[C@H]1OC(C)=O [Compound 2, 2-(1-deoxy-2,3,4,6-tetra-O-acetyl-β-D-galactopyranosyl)-1,2-benzisoselenazol-3(2H)-one] | – | – | 224 | > 100 | – | –
6 | O=c1c2ccccc2[se]n1CCO[C@@H]1OC(CO)[C@@H](O)C(O)C1O (some centres unmarked) [Compound 18] | – | > 100 | – | – | 125 | –
7 | O=c1c2ccccc2[se]n1-c1ccc(O[C@@H]2OC(CO)[C@@H](O)C(O)C2O)cc1 (some centres unmarked) [Compound 26] | 15 | 4.4 | – | – | – | –
8 | CC(=O)OCC1O[C@@H](NC(=O)c2ccc(-n3[se]c4ccccc4c3=O)cc2)C(OC(C)=O)C(OC(C)=O)[C@H]1OC(C)=O (some centres unmarked) [Compound 24] | 72 | 15.3 | – | – | – | –
9 | CC(=O)OCC1O[C@@H](n2[se]c3ccccc3c2=O)C(OC(C)=O)C(OC(C)=O)[C@@H]1OC(C)=O (some centres unmarked) [Compound 19] | – | 5.2 | – | – | 11.9 | –
10 | O=C(Cn1[se]c2ccccc2c1=O)N[C@@H]1O[C@H](CO)[C@@H](O)[C@H](O)[C@H]1O [Compound 7, 2-(3-oxo-1,2-benzisoselenazol-2(3H)-yl)-N-(1-deoxy-β-D-glucopyranosyl)-acetamide] | – | – | 40.3 | 52 | – | 8
11 | CC(=O)OCC1O[C@@H](NC(=O)c2ccc(-n3[se]c4ccccc4c3=O)cc2)C(OC(C)=O)C(OC(C)=O)[C@@H]1O[C@@H]1OC(COC(C)=O)[C@H](OC(C)=O)C(OC(C)=O)C1OC(C)=O (some centres unmarked) [Compound 27] | 12 | 6.8 | – | – | – | –
12 | O=C(CCCn1[se]c2ccccc2c1=O)N[C@@H]1OC(CO)[C@@H](O[C@@H]2OC(CO)[C@H](O)C(O)C2O)C(O)C1O (some centres unmarked) [Compound 16] | – | – | – | – | 39.7 | –
13 | O=C(OCC1O[C@@H](OC(=O)c2ccc(-n3[se]c4ccccc4c3=O)cc2)C(OC(=O)c2ccccc2)C(OC(=O)c2ccccc2)[C@@H]1OC(=O)c1ccccc1)c1ccccc1 (some centres unmarked) [Compound 31] | 8 | 22.9 | – | – | – | –
14 | CC(=O)OCC1O[C@@H](Oc2ccc(-n3[se]c4ccccc4c3=O)cc2)C(OC(C)=O)C(OC(C)=O)[C@@H]1OC(C)=O (some centres unmarked) [Compound 25] | 65 | 11.4 | – | – | – | –
15 | CC(=O)OCC1O[C@@H](OC(=O)c2ccc(-n3[se]c4ccccc4c3=O)cc2)C(OC(C)=O)C(OC(C)=O)[C@H]1OC(C)=O (some centres unmarked) [Compound 29] | 11 | 3.7 | – | – | – | –
16 | CC(=O)OCC1O[C@@H](OC(=O)c2ccc(-n3[se]c4ccccc4c3=O)cc2)C(OC(C)=O)C(OC(C)=O)[C@@H]1OC(C)=O (some centres unmarked) [Compound 28] | 85 | 4.3 | – | – | – | –
17 | CC(=O)OCC1O[C@@H](OC(=O)Cn2[se]c3ccccc3c2=O)C(OC(C)=O)C(OC(C)=O)[C@@H]1OC(C)=O (some centres unmarked) [Compound 17] | 51.9 | 35 | – | – | 30.4 | –
18 | O=C(Cn1[se]c2ccccc2c1=O)N[C@@H]1OC(CO)[C@@H](O)C(O)C1O (some centres unmarked) [Compound 20] | 15 | 550 | – | – | 395 | –
19 | 2-(4-(2,3,4,6-tetra-O-acetyl-β-D-glucopyranosyl)phenzyl)-1,2-benzisoselenazol-3(2H)-one [Compound 8] | – | – | 33.7 | 24.6 | – | 12
20 | CC(=O)OC[C@H]1O[C@@H](NC(=O)Cn2[se]c3ccccc3c2=O)[C@H](OC(C)=O)[C@@H](OC(C)=O)[C@@H]1OC(C)=O [Compound 6, 2-(3-oxo-1,2-benzisoselenazol-2(3H)-yl)-N-(1-deoxy-2,3,4,6-tetra-O-acetyl-β-D-glucopyranosyl)-acetamide] | – | – | 145 | 275 | – | –
21 | 2-(4-(β-D-glucopyranosyl)phenzyl)-1,2-benzisoselenazol-3(2H)-one [Compound 9] | – | – | 277 | 380 | – | 4
22 | CC(=O)OCC1O[C@@H](NC(=O)c2ccc(-n3[se]c4ccccc4c3=O)cc2)C(OC(C)=O)C(OC(C)=O)[C@@H]1OC(C)=O (some centres unmarked) [Compound 21] | 54 | 5.5 | – | – | – | –
23 | O=c1c2ccccc2[se]n1[C@@H]1O[C@H](CO)[C@@H](O[C@@H]2O[C@H](CO)[C@H](O)[C@H](O)[C@H]2O)[C@H](O)[C@H]1O [Compound 5, 2-(1-deoxy-β-D-lactosyl)-1,2-benzisoselenazol-3(2H)-one] | – | – | 24.6 | 18.1 | – | –
24 | (2,3,4,6-tetra-O-acetyl-β-D-glucopyranosyl)-4-(3-oxo-1,2-benzisoselenazol-2(3H)-yl)benzoate [Compound 10] | – | – | 30.6 | 57.5 | – | –
25 | CC(=O)OCC1O[C@@H](NC(=O)CCCn2[se]c3ccccc3c2=O)C(OC(C)=O)C(OC(C)=O)[C@@H]1O[C@@H]1OC(COC(C)=O)[C@H](OC(C)=O)C(OC(C)=O)C1OC(C)=O (some centres unmarked) [Compound 15] | – | – | – | – | 34.5 | –
26 | O=C(CCCn1[se]c2ccccc2c1=O)N[C@@H]1OC(CO)[C@H](O)C(O)C1O (some centres unmarked) [Compound 14] | 13 | 54 | – | – | 66.4 | –

From patent publication US9085598B2, “Compounds targeting the cell invasion protein complex, their pharmaceutical compositions and methods of use thereof” (THE ROYAL INSTITUTE FOR THE ADVANCEMENT OF LEARNING/MCGILL …, priority 2011, dated 2015)
